Measured values taken from patent publication US8217055B2, “Pyrido-pyrazine derivatives useful as herbicidal compounds” (Syngenta Crop Protection LLC, priority 2006, dated 2012).

Key:
Assay in all cases: Example B2 herbicidal action, post-emergence, pots in glasshouse, evaluated after 13 days (10=total damage to plant; 0=no damage to plant)
Assay type in all cases: in vivo
Setaria faberi = tested on: Setaria faberi
Experimental: (§1) Seeds of a variety of test species were sown in standard soil in pots. After 8 days cultivation (post-emergence) under controlled conditions in a glasshouse (at 24/16° C., day/night; 14 hours light; 65% humidity), the plants were sprayed with an aqueous spray solution derived from the formulation of the technical active ingredient in acetone/water (50:50) solution containing 0.5% Tween 20 (polyoxyethelyene sorbitan monolaurate, CAS RN 9005-64-5). The test plants were then grown in a glasshouse under controlled conditions in a glasshouse (at 24/16° C., day/night; 14 hours light; 65% humidity) and watered twice daily. After 13 days, the test was evaluated (10=total damage to plant; 0=no damage to plant).

Solanum nigrum = tested on: Solanum nigrum
Experimental: as §1

Echinochloa crus-galli = tested on: Echinochloa crus-galli
Experimental: as §1

Amaranthus retroflexus = tested on: Amaranthus retroflexus
Experimental: as §1

Ipomea hederaceae = tested on: Ipomea hederaceae
Experimental: as §1

SMILES | SETFA damage score (10=total damage to plant; 0=no damage to plant) (Setaria faberi; rate 1000 g/ha) | SOLNI damage score (10=total damage to plant; 0=no damage to plant) (Solanum nigrum; rate 1000 g/ha) | ECHCG damage score (10=total damage to plant; 0=no damage to plant) (Echinochloa crus-galli; rate 1000 g/ha) | AMARE damage score (10=total damage to plant; 0=no damage to plant) (Amaranthus retroflexus; rate 1000 g/ha) | IPOHE damage score (10=total damage to plant; 0=no damage to plant) (Ipomea hederaceae; rate 1000 g/ha) | SETFA damage score (10=total damage to plant; 0=no damage to plant) (Setaria faberi; rate 250 g/ha) | SOLNI damage score (10=total damage to plant; 0=no damage to plant) (Solanum nigrum; rate 250 g/ha) | ECHCG damage score (10=total damage to plant; 0=no damage to plant) (Echinochloa crus-galli; rate 250 g/ha) | AMARE damage score (10=total damage to plant; 0=no damage to plant) (Amaranthus retroflexus; rate 250 g/ha) | IPOHE damage score (10=total damage to plant; 0=no damage to plant) (Ipomea hederaceae; rate 250 g/ha)
O=c1c(-c2c(F)ccc(Cl)c2Cl)c(O)c2nccnc2n1CC(F)F [B14] | 7 | 10 | 6 | 10 | 10 |  |  |  |  | 
CC(C)(C)C(=O)Oc1c(-c2c(F)ccc(Cl)c2Cl)c(=O)n(CC(F)F)c2nccnc12 [A32] | 7 | 10 | 4 | 10 | 9 |  |  |  |  | 
CC(C)(C)C(=O)Oc1c(-c2c(F)ccc(F)c2Cl)c(=O)n(CCF)c2nccnc12 [C9, 2,2-dimethyl-propionic acid 7-(2-chloro-3,6-difluoro-phenyl)-5-(2-fluoro-ethyl)-6-oxo-5,6-dihydro-pyrido[2,3-b]pyrazin-8-yl ester] | 0 | 4 | 0 | 7 | 5 |  |  |  |  | 
COc1ccc(Br)cc1-c1c(O)c2nccnc2n(CC(F)F)c1=O [B12] | 6 | 9 | 6 | 9 | 6 |  |  |  |  | 
O=C1c2nccnc2N(CCF)C(=O)C1c1c(F)ccc(F)c1Cl (centres unmarked) [D2] | 2 | 7 | 1 | 6 | 5 |  |  |  |  | 
CC(C)(C)C(=O)Oc1c(-c2cc(F)c(Cl)cc2Cl)c(=O)n(CC(F)F)c2nccnc12 [A17] | 7 | 5 | 6 | 3 | 0 |  |  |  |  | 
CC(C)(C)C(=O)Oc1c(-c2cc(F)ccc2Cl)c(=O)n(CC(F)F)c2nccnc12 [A14] | 9 | 10 | 7 | 10 | 10 |  |  |  |  | 
CCc1cc(C)cc(CC)c1-c1c(OC(=O)C(C)C)c2nccnc2n(CC(F)F)c1=O [A12] | 10 | 10 | 9 | 3 | 9 |  |  |  |  | 
CC(C)(C)C(=O)Oc1c(-c2c(Cl)cc(OC(F)(F)F)cc2Cl)c(=O)n(CC(F)F)c2nccnc12 [A11] | 9 | 10 | 9 | 10 | 10 |  |  |  |  | 
COc1ccc(Br)cc1-c1c(OC(=O)C(C)(C)C)c2nccnc2n(CC(F)F)c1=O [A38] | 8 | 9 | 6 | 10 | 6 |  |  |  |  | 
COc1cccc(-c2c(OC(=O)C(C)C)c3nccnc3n(CC(F)F)c2=O)c1OC [A15] | 9 | 10 | 8 | 6 | 9 |  |  |  |  | 
O=c1c(-c2cc(C(F)(F)F)ccc2Cl)c(O)c2nccnc2n1CC(F)F [B3] |  |  |  |  |  | 7 | 9 | 7 | 10 | 8
CC(C)C(=O)Oc1c(-c2c(F)ccc(F)c2Cl)c(=O)n(CC(F)(F)F)c2nccnc12 [C10] | 6 | 10 | 3 | 10 | 10 |  |  |  |  | 
